Assay results reported in PubChem BioAssay (NCI).
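The compound was tested at five concentrations on cells cultured in 96-well plates, with a 48-hour exposure period. Here, GI50 denotes the concentration required for 50% inhibition of growth. TGI denotes the concentration required for complete inhibition of growth.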

Legend:
Assay in all cases: NCI anticancer screen, dose series, 48 h
[1] = test system: HL-60(TB) leukemia
[2] = test system: 786-0 renal
[3] = test system: NCI-H460 lung
[4] = test system: UACC-257 melanoma
[5] = test system: A549 NSCLC
[6] = test system: MCF7 breast
[7] = test system: SF-295 CNS
[8] = test system: SK-MEL-2 melanoma
[9] = test system: OVCAR-4 ovarian
[10] = test system: HS 578T breast
[11] = test system: MOLT-4 leukemia
[12] = test system: SF-268 CNS
[13] = test system: HT29 colon
[14] = test system: BT-549 breast
[15] = test system: SW-620 colon
[16] = test system: NCI-H226 lung
[17] = test system: SNB-19 CNS
[18] = test system: RXF 393 renal
[19] = test system: MDA-MB-231 breast
[20] = test system: SK-OV-3 ovarian
[21] = test system: MALME-3M melanoma
[22] = test system: ACHN renal
[23] = test system: HOP-92 NSCLC
[24] = test system: A498 renal
[25] = test system: HCT-15 colon
[26] = test system: TK-10 renal
[27] = test system: SK-MEL-28 melanoma
[28] = test system: M14 melanoma
[29] = test system: SK-MEL-5 melanoma
[30] = test system: PC-3 prostate
[31] = test system: EKVX NSCLC
[32] = test system: OVCAR-5 ovarian
[33] = test system: SNB-75 CNS
[34] = test system: LOX IMVI melanoma
[35] = test system: U251 CNS
[36] = test system: DU-145 prostate
[37] = test system: K-562 leukemia
[38] = test system: IGROV1 ovarian
[39] = test system: HCT-116 colon
[40] = test system: UO-31 renal
[41] = test system: RPMI-8226 leukemia
[42] = test system: CCRF-CEM leukemia
[43] = test system: UACC-62 melanoma
[44] = test system: NCI-H522 lung
[45] = test system: OVCAR-8 ovarian
[46] = test system: HCC-2998 colon
[47] = test system: NCI-H23 lung
[48] = test system: SF-539 CNS
[49] = test system: CAKI-1 renal
[50] = test system: HOP-62 NSCLC
[51] = test system: T-47D breast
[52] = test system: OVCAR-3 ovarian
[53] = test system: SN12C renal
[54] = test system: KM12 colon
[55] = test system: MDA-MB-435
[56] = test system: NCI/ADR-RES ovarian
[57] = test system: COLO 205 colon
[58] = test system: SR leukemia

Compound: CN([O-])c1nc(N(C)[O-])nc(N2CCOCC2)n1.CN([O-])c1nc(N(C)[OH2+])nc(N2CCOCC2)n1.[Fe+3]
- GI50 [1]: > 100 µM
- TGI [1]: > 100 µM
- GI50 [2]: > 100 µM
- TGI [2]: > 100 µM
- GI50 [3]: 18.3 µM
- TGI [3]: 34.4 µM
- GI50 [4]: > 100 µM
- TGI [4]: > 100 µM
- GI50 [5]: > 100 µM
- TGI [5]: > 100 µM
- GI50 [6]: > 100 µM
- TGI [6]: > 100 µM
- GI50 [7]: 57.6 µM
- TGI [7]: > 100 µM
- GI50 [8]: 81.8 µM
- TGI [8]: > 100 µM
- GI50 [9]: > 100 µM
- TGI [9]: > 100 µM
- GI50 [10]: > 100 µM
- TGI [10]: > 100 µM
- GI50 [11]: > 100 µM
- TGI [11]: > 100 µM
- GI50 [12]: 57.4 µM
- TGI [12]: > 100 µM
- GI50 [13]: > 100 µM
- TGI [13]: > 100 µM
- GI50 [14]: > 100 µM
- TGI [14]: > 100 µM
- GI50 [15]: > 100 µM
- TGI [15]: > 100 µM
- GI50 [16]: > 100 µM
- TGI [16]: > 100 µM
- GI50 [17]: > 100 µM
- TGI [17]: > 100 µM
- GI50 [18]: 68.3 µM
- TGI [18]: > 100 µM
- GI50 [19]: > 100 µM
- TGI [19]: > 100 µM
- GI50 [20]: > 100 µM
- TGI [20]: > 100 µM
- GI50 [21]: 54.9 µM
- TGI [21]: > 100 µM
- GI50 [22]: > 100 µM
- TGI [22]: > 100 µM
- GI50 [23]: 0.487 µM
- TGI [23]: > 100 µM
- GI50 [24]: 0.0197 µM
- TGI [24]: > 100 µM
- GI50 [25]: > 100 µM
- TGI [25]: > 100 µM
- GI50 [26]: > 100 µM
- TGI [26]: > 100 µM
- GI50 [27]: 84.8 µM
- TGI [27]: > 100 µM
- GI50 [28]: 41.5 µM
- TGI [28]: > 100 µM
- GI50 [29]: > 100 µM
- TGI [29]: > 100 µM
- GI50 [30]: > 100 µM
- TGI [30]: > 100 µM
- GI50 [31]: > 100 µM
- TGI [31]: > 100 µM
- GI50 [32]: > 100 µM
- TGI [32]: > 100 µM
- GI50 [33]: > 100 µM
- TGI [33]: > 100 µM
- GI50 [34]: 15.5 µM
- TGI [34]: 36 µM
- GI50 [35]: 27.5 µM
- TGI [35]: > 100 µM
- GI50 [36]: > 100 µM
- TGI [36]: > 100 µM
- GI50 [37]: 48.6 µM
- TGI [37]: > 100 µM
- GI50 [38]: > 100 µM
- TGI [38]: > 100 µM
- GI50 [39]: 96.6 µM
- TGI [39]: > 100 µM
- GI50 [40]: > 100 µM
- TGI [40]: > 100 µM
- GI50 [41]: > 100 µM
- TGI [41]: > 100 µM
- GI50 [42]: > 100 µM
- TGI [42]: > 100 µM
- GI50 [43]: > 100 µM
- TGI [43]: > 100 µM
- GI50 [44]: 23.8 µM
- TGI [44]: 94.7 µM
- GI50 [45]: > 100 µM
- TGI [45]: > 100 µM
- GI50 [46]: > 100 µM
- TGI [46]: > 100 µM
- GI50 [47]: > 100 µM
- TGI [47]: > 100 µM
- GI50 [48]: > 100 µM
- TGI [48]: > 100 µM
- GI50 [49]: > 100 µM
- TGI [49]: > 100 µM
- GI50 [50]: 89.6 µM
- TGI [50]: > 100 µM
- GI50 [51]: > 100 µM
- TGI [51]: > 100 µM
- GI50 [52]: > 100 µM
- TGI [52]: > 100 µM
- GI50 [53]: > 100 µM
- TGI [53]: > 100 µM
- GI50 [54]: 57.1 µM
- TGI [54]: > 100 µM
- GI50 [55]: 61.8 µM
- TGI [55]: > 100 µM
- GI50 [56]: > 100 µM
- TGI [56]: > 100 µM
- GI50 [57]: > 100 µM
- TGI [57]: > 100 µM

Compound: COC(=O)C1=C(O)[C@H](C(=O)OC)C2(O)[C@@H](C(=O)OC)[C@H]1C[C@@H](c1ccc(OC(=O)n3ccnc3)cc1)[C@@H]2C(=O)OC
- GI50 [1]: 13.3 µM
- TGI [1]: > 50 µM
- GI50 [2]: 18.6 µM
- TGI [2]: 45.6 µM
- GI50 [3]: 17 µM
- TGI [3]: > 50 µM
- GI50 [4]: 16 µM
- TGI [4]: 39.8 µM
- GI50 [5]: 15.2 µM
- TGI [5]: > 50 µM
- GI50 [6]: 18.4 µM
- TGI [6]: > 50 µM
- GI50 [7]: 12.7 µM
- TGI [7]: 45.6 µM
- GI50 [8]: 22.8 µM
- TGI [8]: > 50 µM
- GI50 [9]: 20.2 µM
- TGI [9]: > 50 µM
- GI50 [10]: 12.6 µM
- TGI [10]: 41.3 µM
- GI50 [12]: 18.7 µM
- TGI [12]: > 50 µM
- GI50 [14]: 8.68 µM
- TGI [14]: 24.9 µM
- GI50 [15]: 14.3 µM
- TGI [15]: > 50 µM
- GI50 [17]: 19.6 µM
- TGI [17]: > 50 µM
- GI50 [18]: 11.8 µM
- TGI [18]: 26.7 µM
- GI50 [19]: 14.8 µM
- TGI [19]: 48.6 µM
- GI50 [20]: 10.3 µM
- TGI [20]: 29.6 µM
- GI50 [22]: 15.9 µM
- TGI [22]: 42.6 µM
- GI50 [23]: 17.3 µM
- TGI [23]: > 50 µM
- GI50 [25]: 21 µM
- TGI [25]: > 50 µM
- GI50 [26]: 36.8 µM
- TGI [26]: > 50 µM
- GI50 [27]: 10.1 µM
- TGI [27]: 30.5 µM
- GI50 [28]: 30.3 µM
- TGI [28]: > 50 µM
- GI50 [29]: 12.7 µM
- TGI [29]: 36.7 µM
- GI50 [30]: 22.4 µM
- TGI [30]: > 50 µM
- GI50 [31]: 13.1 µM
- TGI [31]: 45.4 µM
- GI50 [32]: 25.7 µM
- TGI [32]: > 50 µM
- GI50 [34]: 13.8 µM
- TGI [34]: > 50 µM
- GI50 [35]: 17.9 µM
- TGI [35]: > 50 µM
- GI50 [36]: 11.7 µM
- TGI [36]: 42.9 µM
- GI50 [37]: 20.3 µM
- TGI [37]: > 50 µM
- GI50 [38]: 6.62 µM
- TGI [38]: 25.4 µM
- GI50 [39]: 16.8 µM
- TGI [39]: > 50 µM
- GI50 [40]: 8.87 µM
- TGI [40]: 17.8 µM
- GI50 [41]: 18.1 µM
- TGI [41]: > 50 µM
- GI50 [43]: 9.07 µM
- TGI [43]: 30.4 µM
- GI50 [44]: 10.9 µM
- TGI [44]: 34.4 µM
- GI50 [58]: 10.8 µM
- TGI [58]: > 50 µM
- GI50 [45]: 13.4 µM
- TGI [45]: 36.4 µM
- GI50 [46]: 9.63 µM
- TGI [46]: 18 µM
- GI50 [47]: 13.9 µM
- TGI [47]: 25.6 µM
- GI50 [48]: 8.44 µM
- TGI [48]: 21.3 µM
- GI50 [49]: 12.7 µM
- TGI [49]: 41.6 µM
- GI50 [50]: 31.3 µM
- TGI [50]: > 50 µM
- GI50 [51]: 7.39 µM
- TGI [51]: 46.4 µM
- GI50 [52]: 12.6 µM
- TGI [52]: > 50 µM
- GI50 [53]: 11.4 µM
- TGI [53]: 30 µM
- GI50 [54]: 10.6 µM
- TGI [54]: 24.5 µM
- GI50 [55]: 8.77 µM
- TGI [55]: 21.4 µM
- GI50 [56]: 16.1 µM
- TGI [56]: 30.7 µM
- GI50 [57]: 9.69 µM
- TGI [57]: 34.1 µM

Compound: c1ccc2c(c1)SC1=Nc3sc4ccccc4[n+]3CN12
- TGI [1]: 82.3 µM
- TGI [2]: 83.7 µM
- TGI [3]: 44.1 µM
- TGI [4]: > 100 µM
- TGI [5]: 25.5 µM
- TGI [6]: 42.9 µM
- TGI [7]: > 100 µM
- TGI [8]: 28.7 µM
- TGI [10]: 67.9 µM
- TGI [11]: 39 µM
- TGI [12]: 49.7 µM
- TGI [13]: 37.7 µM
- TGI [14]: > 100 µM
- TGI [15]: > 100 µM
- TGI [17]: > 100 µM
- TGI [19]: 49.2 µM
- TGI [20]: 66.8 µM
- TGI [21]: 37.6 µM
- TGI [22]: > 100 µM
- TGI [23]: 47.5 µM
- TGI [25]: > 100 µM
- TGI [26]: 76.6 µM
- TGI [28]: 66.2 µM
- TGI [29]: 10.9 µM
- TGI [30]: > 100 µM
- TGI [31]: 53.5 µM
- TGI [32]: 71.1 µM
- TGI [35]: 21.6 µM
- TGI [36]: > 100 µM
- TGI [37]: 81.6 µM
- TGI [38]: 46.3 µM
- TGI [39]: > 100 µM
- TGI [40]: > 100 µM
- TGI [41]: 59.6 µM
- TGI [42]: > 100 µM
- TGI [43]: 45.1 µM
- TGI [44]: 9.03 µM
- TGI [58]: 56.8 µM
- TGI [45]: > 100 µM
- TGI [47]: 59.8 µM
- TGI [48]: 69 µM
- TGI [49]: 42.4 µM
- TGI [50]: > 100 µM
- TGI [51]: 78 µM
- TGI [52]: 11.7 µM
- TGI [53]: 71.1 µM
- TGI [54]: 29.3 µM
- TGI [55]: 49.5 µM
- TGI [56]: > 100 µM
- TGI [57]: 10.9 µM
